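The concentration for 50% growth inhibition is given as GI50. TGI marks complete inhibition of growth.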
How the values were obtained:
Assay in all cases: NCI-60 cell line screen, 384-well format
786-0 renal = tested on: 786-0 renal
A498 renal = tested on: A498 renal
A549 NSCLC = tested on: A549 NSCLC
ACHN renal = tested on: ACHN renal
BT-549 breast = tested on: BT-549 breast
CAKI-1 renal = tested on: CAKI-1 renal
COLO 205 colon = tested on: COLO 205 colon
DU-145 prostate = tested on: DU-145 prostate
EKVX NSCLC = tested on: EKVX NSCLC
HCC-2998 colon = tested on: HCC-2998 colon
HCT-116 colon = tested on: HCT-116 colon
HCT-15 colon = tested on: HCT-15 colon
HL-60(TB) leukemia = tested on: HL-60(TB) leukemia
HOP-62 NSCLC = tested on: HOP-62 NSCLC
HOP-92 NSCLC = tested on: HOP-92 NSCLC
HS 578T breast = tested on: HS 578T breast
HT29 colon = tested on: HT29 colon
IGROV1 ovarian = tested on: IGROV1 ovarian
KM12 colon = tested on: KM12 colon
LOX IMVI melanoma = tested on: LOX IMVI melanoma
M14 melanoma = tested on: M14 melanoma
MALME-3M melanoma = tested on: MALME-3M melanoma
MCF7 breast = tested on: MCF7 breast
MDA-MB-231 breast = tested on: MDA-MB-231 breast
MDA-MB-435 melanoma = tested on: MDA-MB-435 melanoma
MDA-MB-468 breast = tested on: MDA-MB-468 breast
MOLT-4 leukemia = tested on: MOLT-4 leukemia
NCI-H226 lung = tested on: NCI-H226 lung
NCI-H23 lung = tested on: NCI-H23 lung
NCI-H322M lung = tested on: NCI-H322M lung
NCI-H460 NSCLC = tested on: NCI-H460 NSCLC
NCI-H522 lung = tested on: NCI-H522 lung
NCI/ADR-RES ovarian = tested on: NCI/ADR-RES ovarian
OVCAR-3 ovarian = tested on: OVCAR-3 ovarian
OVCAR-4 ovarian = tested on: OVCAR-4 ovarian
OVCAR-5 ovarian = tested on: OVCAR-5 ovarian
OVCAR-8 ovarian = tested on: OVCAR-8 ovarian
PC-3 prostate = tested on: PC-3 prostate
RPMI-8226 leukemia = tested on: RPMI-8226 leukemia
SF-268 CNS = tested on: SF-268 CNS
SF-295 CNS = tested on: SF-295 CNS
SF-539 CNS = tested on: SF-539 CNS
SK-MEL-28 melanoma = tested on: SK-MEL-28 melanoma
SK-MEL-5 melanoma = tested on: SK-MEL-5 melanoma
SK-OV-3 ovarian = tested on: SK-OV-3 ovarian
SN12C renal = tested on: SN12C renal
SNB-19 CNS = tested on: SNB-19 CNS
SR leukemia = tested on: SR leukemia
SW-620 colon = tested on: SW-620 colon
T-47D breast = tested on: T-47D breast
TK-10 renal = tested on: TK-10 renal
U251 glioblastoma = tested on: U251 glioblastoma
UACC-257 melanoma = tested on: UACC-257 melanoma
UACC-62 melanoma = tested on: UACC-62 melanoma
UO-31 renal = tested on: UO-31 renal

Cc1nc(Nc2ncc(C(=O)Nc3c(C)cccc3Cl)s2)cc(N2CCN(CCO)CC2)n1
GI50 (786-0 renal): 35.7 nM
TGI (786-0 renal): 2500 nM
GI50 (A498 renal): 251 nM
TGI (A498 renal): 2750 nM
GI50 (A549 NSCLC): 27.5 nM
TGI (A549 NSCLC): 12600 nM
GI50 (ACHN renal): 17.2 nM
TGI (ACHN renal): 234 nM
GI50 (BT-549 breast): 32.7 nM
TGI (BT-549 breast): 1260 nM
GI50 (CAKI-1 renal): 27.7 nM
TGI (CAKI-1 renal): 225 nM
GI50 (COLO 205 colon): 3800 nM
TGI (COLO 205 colon): 10700 nM
GI50 (DU-145 prostate): 227 nM
TGI (DU-145 prostate): 4850 nM
GI50 (EKVX NSCLC): 724 nM
TGI (EKVX NSCLC): 15600 nM
GI50 (HCC-2998 colon): 5080 nM
TGI (HCC-2998 colon): 16800 nM
GI50 (HCT-116 colon): 4830 nM
TGI (HCT-116 colon): 17400 nM
GI50 (HCT-15 colon): 1030 nM
TGI (HCT-15 colon): 13700 nM
GI50 (HL-60(TB) leukemia): 7230 nM
TGI (HL-60(TB) leukemia): 18100 nM
GI50 (HOP-62 NSCLC): 64.8 nM
TGI (HOP-62 NSCLC): 12200 nM
GI50 (HOP-92 NSCLC): 37.2 nM
TGI (HOP-92 NSCLC): 2040 nM
GI50 (HS 578T breast): 12.9 nM
TGI (HS 578T breast): 49.4 nM
GI50 (HT29 colon): 2020 nM
TGI (HT29 colon): 13300 nM
TGI (IGROV1 ovarian): 37.5 nM
GI50 (KM12 colon): 7300 nM
TGI (KM12 colon): 19800 nM
GI50 (LOX IMVI melanoma): 27.7 nM
TGI (LOX IMVI melanoma): 1250 nM
GI50 (M14 melanoma): 2860 nM
TGI (M14 melanoma): 8230 nM
GI50 (MALME-3M melanoma): 3190 nM
TGI (MALME-3M melanoma): 8820 nM
GI50 (MCF7 breast): 10000 nM
TGI (MCF7 breast): 21700 nM
GI50 (MDA-MB-231 breast): 25.1 nM
TGI (MDA-MB-231 breast): 1040 nM
GI50 (MDA-MB-435 melanoma): 9250 nM
TGI (MDA-MB-435 melanoma): 20800 nM
GI50 (MDA-MB-468 breast): 695 nM
TGI (MDA-MB-468 breast): 4510 nM
GI50 (MOLT-4 leukemia): 1000 nM
TGI (MOLT-4 leukemia): 3000 nM
GI50 (NCI-H226 lung): 24.7 nM
TGI (NCI-H226 lung): 2640 nM
GI50 (NCI-H23 lung): 2590 nM
TGI (NCI-H23 lung): 10700 nM
GI50 (NCI-H322M lung): 38.1 nM
TGI (NCI-H322M lung): 973 nM
GI50 (NCI-H460 NSCLC): 9520 nM
TGI (NCI-H460 NSCLC): 21400 nM
GI50 (NCI-H522 lung): 13.5 nM
TGI (NCI-H522 lung): 98 nM
GI50 (NCI/ADR-RES ovarian): 1870 nM
TGI (NCI/ADR-RES ovarian): 14700 nM
GI50 (OVCAR-3 ovarian): 15.1 nM
TGI (OVCAR-3 ovarian): 419 nM
GI50 (OVCAR-4 ovarian): 58.8 nM
TGI (OVCAR-4 ovarian): 850 nM
GI50 (OVCAR-5 ovarian): 41 nM
TGI (OVCAR-5 ovarian): 6270 nM
GI50 (OVCAR-8 ovarian): 64.3 nM
TGI (OVCAR-8 ovarian): 2970 nM
GI50 (PC-3 prostate): 3120 nM
TGI (PC-3 prostate): 17500 nM
GI50 (RPMI-8226 leukemia): 2110 nM
TGI (RPMI-8226 leukemia): 5500 nM
GI50 (SF-268 CNS): 30.3 nM
TGI (SF-268 CNS): 128 nM
GI50 (SF-295 CNS): 2590 nM
TGI (SF-295 CNS): 18900 nM
GI50 (SF-539 CNS): 48.2 nM
TGI (SF-539 CNS): 1640 nM
GI50 (SK-MEL-28 melanoma): 5620 nM
TGI (SK-MEL-28 melanoma): 18700 nM
GI50 (SK-MEL-5 melanoma): 4260 nM
TGI (SK-MEL-5 melanoma): 15100 nM
GI50 (SK-OV-3 ovarian): 49.6 nM
TGI (SK-OV-3 ovarian): 3140 nM
GI50 (SN12C renal): 13.9 nM
TGI (SN12C renal): 3390 nM
GI50 (SNB-19 CNS): 8690 nM
TGI (SNB-19 CNS): 21700 nM
GI50 (SR leukemia): 5440 nM
TGI (SR leukemia): 8780 nM
GI50 (SW-620 colon): 15100 nM
TGI (SW-620 colon): 28600 nM
GI50 (T-47D breast): 176 nM
TGI (T-47D breast): 15100 nM
GI50 (TK-10 renal): 25.9 nM
TGI (TK-10 renal): 164 nM
GI50 (U251 glioblastoma): 4200 nM
TGI (U251 glioblastoma): 17800 nM
GI50 (UACC-257 melanoma): 5530 nM
TGI (UACC-257 melanoma): 18200 nM
GI50 (UACC-62 melanoma): 2050 nM
TGI (UACC-62 melanoma): 10100 nM
GI50 (UO-31 renal): 57 nM
TGI (UO-31 renal): 840 nM

Source: PubChem BioAssay (NCI)
